Experimental data taken from patent publication US9040524B2, “Antifungal 5,6-dihydro-4H-pyrrolo[1,2-a][1,4]-benzodiazepines and 6H-pyrrolo[1,2-a][1,4]benzodiazepines substituted with bicycle benzene derivatives” (JANSSEN PHARMACEUTICA NV, priority 2010, dated 2015).

Legend:
Assay type in all cases: cell-based
Cryptococcus neoformans = test: Antifungal activity in vitro, resazurin growth inhibition screen: Cryptococcus neoformans; conditions: Cryptococcus neoformans B66663; for IC50: read-out: Inf. F pIC50 (converted)
Description: (§1) The standard susceptibility screen was performed in 96-well plates (U-bottom, Greiner Bio-One). Serial dilutions (2-fold or 4-fold) of 20 mM compound stock solutions were made in 100% DMSO, followed by an intermediate dilution step in water. These serial dilutions (10 μl) were then spotted onto test-plates that could be stored in the dark at 4° C. for a maximum period of 2 weeks. An adequate broad dose-range was included with 64 μM as the highest in-test concentration. […] The different fungal species/isolates (Table 3a) were cryopreserved and 1/1000 diluted in medium just prior to use. A standard inoculum of 200 μl containing 10^3 colony-forming unit (cfu) was then added to each well. A positive control (100% growth=fungal culture without antifungal) and a negative control (0% growth=RPMI-MOPS medium) were included on each plate.

Microsporum canis = test: Antifungal activity in vitro, resazurin growth inhibition screen: Microsporum canis; conditions: Microsporum canis B68128; for IC50: read-out: Inf. B pIC50 (converted)
Description: as §1

Aspergillus fumigatus = test: Antifungal activity in vitro, resazurin growth inhibition screen: Aspergillus fumigatus; conditions: Aspergillus fumigatus B42928; for IC50: read-out: Inf. E pIC50 (converted)
Description: as §1

Trichophyton rubrum = test: Antifungal activity in vitro, resazurin growth inhibition screen: Trichophyton rubrum; conditions: Trichophyton rubrum B68183; for IC50: read-out: Inf. C pIC50 (converted)
Description: as §1

[1] = test system: Trichophyton mentagrophytes; test: Antifungal activity in vitro, resazurin growth inhibition screen: Trichophyton mentagrophytes; conditions: Trichophyton mentagrophytes B70554; for IC50: read-out: Inf. G pIC50 (converted)
Description: as §1

Candida parapsilosis = test: Antifungal activity in vitro, resazurin growth inhibition screen: Candida parapsilosis; conditions: Candida parapsilosis B66126; for IC50: Lodderomyces parapsilosis, read-out: Inf. D pIC50 (converted)
Description: as §1

Sporothrix schenkii = test: Antifungal activity in vitro, resazurin growth inhibition screen: Sporothrix schenkii; conditions: Sporothrix schenkii B62482; for IC50: read-out: Inf. A pIC50 (converted)
Description: as §1

IC50 (Cryptococcus neoformans)	IC50 (Microsporum canis)	IC50 (Aspergillus fumigatus)	IC50 (Trichophyton rubrum)	IC50 [1]	IC50 (Candida parapsilosis)	IC50 (Sporothrix schenkii)	SMILES	Inf. F pIC50 (Cryptococcus neoformans)	Inf. B pIC50 (Microsporum canis)	Inf. E pIC50 (Aspergillus fumigatus)	Inf. C pIC50 (Trichophyton rubrum)	Inf. G pIC50 [1]	Inf. D pIC50 (Candida parapsilosis)	Inf. A pIC50 (Sporothrix schenkii)
–	–	–	–	–	–	–	Cl.Clc1ccc2c(c1Cl)CNC(c1ccc3c(c1)CCC3)c1cccn1-2 (stereo not drawn) [Compound 18, 7,8-dichloro-4-(2,3-dihydro-1H-inden-5-yl)-5,6-dihydro-4H-pyrrolo[1,2-a][1,4]-benzodiazepine .HCl]	<4.19	4.62	4.67	5.70	5.26	<4.19	<4.19
7.08 µM	5.01 µM	> 64.6 µM	5.01 µM	7.94 µM	12 µM	5.01 µM	Clc1ccc2c(c1Cl)CN=C(c1ccc3c(c1)CCO3)c1cccn1-2 [Compound 44, 7,8-dichloro-4-(2,3-dihydro-5-benzofuranyl)-6H-pyrrolo[1,2-a][1,4]benzodiazepine]	–	–	–	–	–	–	–
5.89 µM	2 µM	2.4 µM	1.58 µM	3.98 µM	> 64.6 µM	2.24 µM	O=C1CCc2cc(C3=NCc4cccc(Cl)c4-n4cccc43)ccc21 [Compound 57, 5-(10-chloro-6H-pyrrolo[1,2-a][1,4]benzodiazepin-4-yl)-2,3-dihydro-1H-inden-1-one]	–	–	–	–	–	–	–
–	–	–	–	–	–	–	Cl.Fc1cccc2c1CNC(c1ccc3c(c1)CCOC3)c1cccn1-2 (stereo not drawn) [Compound 29, 4-(3,4-dihydro-1H-2-benzopyran-6-yl)-7-fluoro-5,6-dihydro-4H-pyrrolo[1,2-a]-[1,4]benzodiazepine .HCl]	<4.19	<4.19	<4.19	4.44	<4.19	<4.19	<4.19
–	–	–	–	–	–	–	Cl.Clc1cccc2c1CNC(c1ccc3c(c1)CCO3)c1cccn1-2 (stereo not drawn) [Compound 26, 7-chloro-4-(2,3-dihydro-5-benzofuranyl)-5,6-dihydro-4H-pyrrolo[1,2-a][1,4]benzo-diazepine .HCl]	<4.19	6.00	4.85	6.25	5.70	4.25	<4.19
–	–	–	–	–	–	–	Br.COc1cccc2c1CNC(c1ccc3c(c1)OCO3)c1cccn1-2 (stereo not drawn) [Compound 8, 4-(1,3-benzodioxol-5-yl)-5,6-dihydro-7-methoxy-4H-pyrrolo[1,2-a][1,4]benzo-diazepine .HBr]	<4.19	4.66	<4.19	5.22	<4.19	<4.19	<4.19
–	–	–	–	–	–	–	Br.COc1cc2c(cc1C1NCc3c(Cl)cccc3-n3cccc31)CCCC2 (stereo not drawn) [Compound 15, 7-chloro-5,6-dihydro-4-(5,6,7,8-tetrahydro-3-methoxy-2-naphthalenyl)-4H-pyrrolo-[1,2-a][1,4]benzodiazepine .HBr]	<4.19	<4.19	<4.19	5.40	<4.19	<4.19	<4.19
–	–	–	–	–	–	–	Br.c1ccc2c(c1)CNC(c1ccc3c(c1)OCO3)c1cccn1-2 (stereo not drawn) [Compound 2, 4-(1,3-benzodioxol-5-yl)-5,6-dihydro-4H-pyrrolo[1,2-a][1,4]benzodiazepine .HBr]	<4.19	4.42	<4.19	4.96	–	<4.19	<4.19
–	–	–	–	–	–	–	Cl.Clc1ccc(Cl)c2c1CNC(c1ccc3c(c1)CCO3)c1cccn1-2 (stereo not drawn) [Compound 32, 7,10-dichloro-4-(2,3-dihydro-5-benzofuranyl)-5,6-dihydro-4H-pyrrolo[1,2-a][1,4]-benzodiazepine .HCl]	4.64	5.52	<4.19	5.22	4.92	<4.19	<4.19
–	–	–	–	–	–	–	Cl.Fc1cc(F)c2c(c1)-n1cccc1C(c1ccc3c(c1)CCC(F)(F)O3)NC2 (stereo not drawn) [Compound 54, 4-(2,2-difluoro-3,4-dihydro-2H-1-benzopyran-6-yl)-7,9-difluoro-5,6-dihydro-4H-pyrrolo[1,2-a][1,4]benzodiazepine .HCl]	5.11	5.09	<4.19	5.10	4.49	<4.19	<4.19
–	–	–	–	–	–	–	Cl.Clc1cc(Cl)c2c(c1)-n1cccc1C(c1ccc3c(c1)CCO3)NC2 (stereo not drawn) [Compound 31, 7,9-dichloro-4-(2,3-dihydro-5-benzofuranyl)-5,6-dihydro-4H-pyrrolo[1,2-a][1,4]-benzodiazepine .HCl]	<4.19	5.52	<4.19	6.00	5.80	<4.19	<4.19
–	–	–	–	–	–	–	Br.Clc1cccc2c1-n1cccc1C(c1ccc3c(c1)OCO3)NC2 (stereo not drawn) [Compound 7, 4-(1,3-benzodioxol-5-yl)-10-chloro-5,6-dihydro-4H-pyrrolo[1,2-a][1,4]benzo-diazepine .HBr]	4.64	5.30	<4.19	5.40	4.47	<4.19	<4.19
–	–	–	–	–	–	–	FC1(F)CCc2cc(C3=NCc4cccc(Cl)c4-n4cccc43)ccc21 [Compound 68, 10-chloro-4-(1,1-difluoro-2,3-dihydro-1H-inden-5-yl)-6H-pyrrolo[1,2-a][1,4]benzo-diazepine]	<4.19	<4.19	4.19	<4.19	<4.19	<4.19	<4.19
–	–	–	–	–	–	–	Clc1cccc2c1CN=C(c1ccc3c(c1)OCO3)c1cccn1-2 [Compound 10, 4-(1,3-benzodioxol-5-yl)-7-chloro-6H-pyrrolo[1,2-a][1,4]benzo-diazepine]	4.48	5.00	<4.19	5.70	5.30	<4.19	<4.19
–	–	–	–	–	–	–	FC1(F)CCc2cc(C3=NCc4c(Cl)cccc4-n4cccc43)ccc21 [Compound 66, 7-chloro-4-(1,1-difluoro-2,3-dihydro-1H-inden-5-yl)-6H-pyrrolo[1,2-a][1,4]benzo-diazepine]	6.11	4.49	5.09	<4.19	<4.19	5.55	4.46
–	–	–	–	–	–	–	FC1(F)CCc2cc(C3=NCc4ccc(Cl)cc4-n4cccc43)ccc21 [Compound 67, 9-chloro-4-(1,1-difluoro-2,3-dihydro-1H-inden-5-yl)-6H-pyrrolo[1,2-a][1,4]benzo-diazepine]	5.36	5.09	5.10	<4.19	5.09	5.90	5.10
–	–	–	–	–	–	–	Br.Clc1cccc2c1CNC(c1ccc3c(c1)OCO3)c1cccn1-2 (stereo not drawn) [Compound 4, 4-(1,3-benzodioxol-5-yl)-7-chloro-5,6-dihydro-4H-pyrrolo[1,2-a][1,4]benzo-diazepine .HBr]	4.38	5.09	<4.19	5.70	–	<4.19	<4.19
–	–	–	–	–	–	–	Br.COc1cc2c(cc1C1NCc3c(Cl)cccc3-n3cccc31)OC(C)C2 (stereo not drawn) [Compound 49, 7-chloro-4-(2,3-dihydro-5-methoxy-2-methyl-6-benzofuranyl)-5,6-dihydro-4H-pyrrolo[1,2-a][1,4]benzodiazepine .HBr]	4.34	5.05	<4.19	5.10	–	<4.19	<4.19
–	–	–	–	–	–	–	Br.Clc1ccc2c(c1)CNC(c1ccc3c(c1)OCO3)c1cccn1-2 (stereo not drawn) [Compound 5, 4-(1,3-benzodioxol-5-yl)-8-chloro-5,6-dihydro-4H-pyrrolo[1,2-a][1,4]benzo-diazepine .HBr]	4.42	5.11	<4.19	5.05	–	<4.19	<4.19
–	–	–	–	–	–	–	Br.CCOc1cc2c(cc1C1NCc3c(Cl)cccc3-n3cccc31)CCC2 (stereo not drawn) [Compound 14, 7-chloro-4-(6-ethoxy-2,3-dihydro-1H-inden-5-yl)-5,6-dihydro-4H-pyrrolo[1,2-a]-[1,4]benzodiazepine .HBr]	4.82	5.10	<4.19	5.52	–	<4.19	<4.19
